Measured values: patent EP1582590A1, “Sequential intracellular screening method” (Aptanomics, priority 2004, dated 2005)
Read-outs that look alike come from different tables or passages of the source.

What was measured:
Type in all cases: cell-based
[1] = target: T1, interaction between Trα and NCoR (Homo sapiens, UniProt P10827); assay: dual (duplex) two-hybrid assay, two yeast populations mixed in one well, ruc signal
T1 construct: expressed in transfected cells; host or cells: Saccharomyces cerevisiae TB50 (WT and ERG6-deleted)
T1 sequence (P10827 1-410 isoform P10827-2): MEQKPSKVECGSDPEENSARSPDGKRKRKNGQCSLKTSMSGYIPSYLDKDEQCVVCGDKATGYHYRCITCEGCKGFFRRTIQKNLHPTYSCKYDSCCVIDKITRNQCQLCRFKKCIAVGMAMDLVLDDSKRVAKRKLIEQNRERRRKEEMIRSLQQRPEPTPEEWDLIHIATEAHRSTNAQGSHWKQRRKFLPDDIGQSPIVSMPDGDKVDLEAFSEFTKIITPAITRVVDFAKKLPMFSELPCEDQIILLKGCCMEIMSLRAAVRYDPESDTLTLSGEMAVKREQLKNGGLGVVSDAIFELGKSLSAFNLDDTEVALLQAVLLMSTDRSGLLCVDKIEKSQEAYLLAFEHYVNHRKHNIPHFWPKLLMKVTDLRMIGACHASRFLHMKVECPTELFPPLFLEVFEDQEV
Experimental: (§1) Yeast strains TB50 WT and TB50 ERG6 were transformed as described in Figure 1. They were grown from frozen transformants. For each strain, the two yeast cultures containing the two protein interactions were mixed together and delivered into a microwell plate. […] Experiments were performed in duplicates. The values are normalized with the signals obtained in presence of DMSO.
(§2) 20µl of yeast cultures were delivered into 96 well half area white plates (Coming-Costar, ref. 3693). When applicable, 2µl of either DMSO 10% or 10µM of small molecules were added. 2µl of Galactose 20% were added to the wells to induce the expression of the preys. When two different yeast cultures were mixed in a single well, 10µl of each culture were used, to reach a total of 20µl. Plates were incubated at room temperature and left non-agitated for various times. […] Briefly, to lyse the yeast and reveal the activity of firefly luciferase, 25µl of reagent was added and the plates were incubated for another 40 to 60min at room temperature, without agitation, before being read in a luminometer. To reveal the activity of Renilla luciferase, 25µl of "stop&glo reagent" were added to the wells and the plates were incubated for another 60min at room temperature, without agitation, before a second reading. Luminescence was measured by a Trilux (Perkin Elmer) setting the integration at 1sec/well. […]

[2] = target: TGF-β-R/FKBP12 (Rattus norvegicus, UniProt Q62658); assay: luminescent yeast two-hybrid assay, inhibition of protein interaction by small molecules (luc reporter)
Experimental: They were grown from frozen transformants.
20µl of yeast cultures were delivered into 96 well half area white plates (Coming-Costar, ref. 3693). When applicable, 2µl of either DMSO 10% or 10µM of small molecules were added. 2µl of Galactose 20% were added to the wells to induce the expression of the preys. When two different yeast cultures were mixed in a single well, 10µl of each culture were used, to reach a total of 20µl. Plates were incubated at room temperature and left non-agitated for various times. To reveal the activity of both luciferases, a Dual-Glo™ luciferase assay system was used (Promega, ref. E2920) according to the instructions of the manufacturer. Briefly, to lyse the yeast and reveal the activity of firefly luciferase, 25µl of reagent was added and the plates were incubated for another 40 to 60min at room temperature, without agitation, before being read in a luminometer. To reveal the activity of Renilla luciferase, 25µl of "stop&glo reagent" were added to the wells and the plates were incubated for another 60min at room temperature, without agitation, before a second reading. Luminescence was measured by a Trilux (Perkin Elmer) setting the integration at 1sec/well. Values are given in LCPS (1LCPS = 100 counts per sec).

[3] = system: lexA-TGFβ-R and B42-FKBP12; assay: dual (duplex) two-hybrid assay, two yeast populations mixed in one well, luc signal
Experimental: as §1, §2

TGF-β-R/FKBP12, sequence (Q62658 whole entry): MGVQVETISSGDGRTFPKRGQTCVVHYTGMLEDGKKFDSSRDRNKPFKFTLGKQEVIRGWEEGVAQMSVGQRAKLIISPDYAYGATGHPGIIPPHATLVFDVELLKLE
TGF-β-R/FKBP12, sequence (P80204 146-501 partner): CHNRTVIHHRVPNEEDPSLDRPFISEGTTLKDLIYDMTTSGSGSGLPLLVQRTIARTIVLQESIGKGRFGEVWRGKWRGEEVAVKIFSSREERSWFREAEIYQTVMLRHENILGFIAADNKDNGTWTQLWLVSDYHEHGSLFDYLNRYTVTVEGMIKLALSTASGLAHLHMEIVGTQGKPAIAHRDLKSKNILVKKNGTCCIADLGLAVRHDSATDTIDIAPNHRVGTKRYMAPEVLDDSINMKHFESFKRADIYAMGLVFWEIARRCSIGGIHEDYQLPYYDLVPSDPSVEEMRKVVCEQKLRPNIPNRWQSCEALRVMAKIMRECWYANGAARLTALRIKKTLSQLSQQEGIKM

| SMILES | inhibition of the ruc two-hybrid signal ([1]; ERG6 deleted strain, high concentration of FK506, non-cognate interaction, duplex, induction time 5h) [%] | inhibition at 10 µM ([2]; read-out: % Inhibition 10µM, Addition of compound C 23h after induction of prey (partner B), plates read 5h later, TB50 WT) [%] | inhibition at 10 µM ([2]; read-out: % Inhibition 10µM, Addition of compound C before induction of prey (partner B), 5h induction time, TB50 WT) [%] | inhibition at 10 µM ([2]; read-out: inhibition of two-hybrid signals, 10µM FK506, maximum inhibition after 4h of induction time) [%] | effect on luc two-hybrid signal [3] | effect on ruc two-hybrid signal [1] |
| --- | --- | --- | --- | --- | --- | --- |
| C=CC[C@@H]1/C=C(\C)C[C@H](C)C[C@H](OC)[C@H]2O[C@@](O)(C(=O)C(=O)N3CCCC[C@H]3C(=O)O[C@H](/C(C)=C/[C@@H]3CC[C@@H](O)[C@H](OC)C3)[C@H](C)[C@@H](O)CC1=O)[C@H](C)C[C@@H]2OC [FK506] | 40 | 46 | 80 | > 90 | – | – |
| C[C@@H]1C[C@@H]([C@H](O)CC2CC(=O)NC(=O)C2)C(=O)[C@@H](C)C1 [cycloheximide] | – | – | – | – | strongly inhibited both two-hybrid signals | strongly inhibited both two-hybrid signals |
